Key:
Experiment in all cases: relative viability (nuclei count vs DMSO), 5 days (fraction); higher = more cells survive
FH535 + Palbociclib = compound: CC1=C(C=CC(=C1)[N+](=O)[O-])NS(=O)(=O)C2=C(C=CC(=C2)Cl)Cl [FH535] + CC(=O)c1c(C)c2cnc(Nc3ccc(N4CCNCC4)cn3)nc2n(C2CCCC2)c1=O [Palbociclib] (partner 0.5 µM)
In short: (§1)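 Lung cancer cell lines were seeded in 1536-well plates and dosed by pin tool the next day, with either a single drug or a fixed anchor-drug dose combined with five library-drug doses (not always all listed) spaced in √10 steps. Five days later, one step fixed the cells and stained their nuclei (final 0.05% Triton X-100, 1% formaldehyde, 1 ug/ml Hoechst), and nuclei were counted on 4× images. Relative viability is the nuclei count in treated wells divided by the count in vehicle wells, and each value is the median of duplicate plates.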

FH535 + Lapatinib = compound: CC1=C(C=CC(=C1)[N+](=O)[O-])NS(=O)(=O)C2=C(C=CC(=C2)Cl)Cl [FH535] + CS(=O)(=O)CCNCc1ccc(-c2ccc3ncnc(Nc4ccc(OCc5cccc(F)c5)c(Cl)c4)c3c2)o1 [Lapatinib] (partner 2 µM)
In short: as §1

FH535 + Phenformin = compound: CC1=C(C=CC(=C1)[N+](=O)[O-])NS(=O)(=O)C2=C(C=CC(=C2)Cl)Cl [FH535] + N=C(N)NC(=N)NCCc1ccccc1 [Phenformin] (partner 250 µM)
In short: as §1

FH535 + Pemetrexed = compound: CC1=C(C=CC(=C1)[N+](=O)[O-])NS(=O)(=O)C2=C(C=CC(=C2)Cl)Cl [FH535] + Nc1nc2[nH]cc(CCc3ccc(C(=O)N[C@@H](CCC(=O)O)C(=O)O)cc3)c2c(=O)[nH]1 [Pemetrexed] (partner 0.2 µM)
In short: as §1

FH535 + Olaparib = compound: CC1=C(C=CC(=C1)[N+](=O)[O-])NS(=O)(=O)C2=C(C=CC(=C2)Cl)Cl [FH535] + O=C(c1cc(Cc2n[nH]c(=O)c3ccccc23)ccc1F)N1CCN(C(=O)C2CC2)CC1 [Olaparib] (partner 8 µM)
In short: as §1

Row | Cell Line | relative viability (FH535 + Palbociclib; first compound 0.04 µM) | relative viability (FH535 + Palbociclib; first compound 0.1265 µM) | relative viability (FH535 + Palbociclib; first compound 0.4 µM) | relative viability (FH535 + Palbociclib; first compound 1.265 µM) | relative viability (FH535 + Lapatinib; first compound 0.04 µM) | relative viability (FH535 + Lapatinib; first compound 0.1265 µM) | relative viability (FH535 + Lapatinib; first compound 0.4 µM) | relative viability (FH535 + Lapatinib; first compound 1.265 µM) | relative viability (FH535 + Phenformin; first compound 0.04 µM) | relative viability (FH535 + Phenformin; first compound 0.1265 µM) | relative viability (FH535 + Phenformin; first compound 0.4 µM) | relative viability (FH535 + Phenformin; first compound 1.265 µM) | relative viability (FH535 + Pemetrexed; first compound 0.04 µM) | relative viability (FH535 + Pemetrexed; first compound 0.1265 µM) | relative viability (FH535 + Pemetrexed; first compound 0.4 µM) | relative viability (FH535 + Pemetrexed; first compound 1.265 µM) | relative viability (FH535 + Olaparib; first compound 0.04 µM) | relative viability (FH535 + Olaparib; first compound 0.1265 µM) | relative viability (FH535 + Olaparib; first compound 0.4 µM) | relative viability (FH535 + Olaparib; first compound 1.265 µM)
1 | NCI-H1651 | 0.51 | 0.497 | 0.532 | 0.437 | 0.815 | 0.729 | 0.731 | 0.669 | 0.318 | 0.319 | 0.221 | 0.188 | 0.568 | 0.595 | 0.551 | 0.553 | 0.174 | 0.194 | 0.188 | 0.184
2 | NCI-H1666 | 0.674 | 0.639 | 0.614 | 0.631 | 0.601 | 0.623 | 0.634 | 0.421 | 0.582 | 0.513 | 0.476 | 0.373 | 0.838 | 0.834 | 0.948 | 0.794 | 0.742 | 0.731 | 0.756 | 0.725
3 | NCI-H1734 | 0.375 | 0.312 | 0.351 | 0.332 | 1.01 | 1.14 | 0.955 | 0.935 | – | 0.394 | 0.373 | 0.269 | 0.45 | 0.434 | 0.415 | 0.388 | 0.539 | 0.715 | 0.635 | 0.613
4 | NCI-H1755 | 0.428 | 0.413 | 0.463 | 0.448 | 1.04 | 0.985 | 0.944 | 0.949 | 0.539 | 0.627 | 0.558 | 0.494 | 0.406 | 0.42 | 0.342 | 0.413 | 0.867 | 0.857 | 0.8 | 0.869
5 | NCI-H1792 | 0.657 | 0.629 | 0.664 | 0.486 | 0.837 | 0.948 | 0.866 | 0.673 | 0.216 | 0.358 | 0.267 | 0.235 | 0.708 | 0.807 | 0.673 | 0.54 | 0.463 | 0.329 | 0.39 | 0.345
6 | NCI-H1793 | 0.315 | 0.306 | 0.348 | 0.241 | 0.525 | 0.575 | 0.641 | 0.696 | 0.39 | 0.256 | 0.278 | 0.211 | 0.655 | 0.932 | 0.66 | 0.584 | 0.801 | 0.94 | 0.826 | 0.454
7 | NCI-H1915 | 0.537 | 0.501 | 0.469 | 0.45 | 0.867 | 0.826 | 0.852 | 0.795 | 0.339 | 0.385 | 0.309 | 0.292 | 0.472 | 0.522 | 0.498 | 0.487 | 0.208 | 0.286 | 0.242 | 0.236
8 | NCI-H1944 | 0.328 | 0.326 | 0.35 | 0.272 | – | 0.777 | 0.668 | 0.754 | 0.17 | 0.205 | 0.161 | 0.109 | 0.53 | 0.621 | 0.505 | 0.515 | 0.382 | 0.453 | 0.431 | 0.308
9 | NCI-H1975 | 0.627 | 0.403 | 0.481 | 0.474 | 0.863 | 0.748 | 0.715 | 0.73 | 0.384 | 0.402 | 0.35 | 0.256 | 0.286 | 0.309 | 0.277 | 0.275 | 0.868 | 0.877 | 0.718 | 0.624
10 | NCI-H1993 | 0.651 | 0.661 | 0.592 | 0.415 | 0.676 | 0.781 | 0.729 | 0.714 | 0.415 | 0.495 | 0.533 | 0.524 | 0.539 | 0.611 | 0.523 | 0.463 | 0.941 | 1.03 | 0.983 | 0.581
11 | NCI-H2009 | 0.243 | 0.174 | 0.229 | 0.215 | 0.82 | 0.859 | 0.853 | 0.656 | 0.486 | 0.447 | 0.402 | 0.179 | 1 | 1 | 0.955 | 0.836 | 0.666 | 0.652 | 0.662 | 0.552
12 | NCI-H2023 | 0.383 | 0.369 | 0.404 | 0.331 | 0.671 | 0.846 | 0.919 | 0.738 | 0.384 | 0.375 | 0.314 | 0.191 | 0.194 | 0.219 | 0.249 | 0.21 | 0.48 | 0.5 | 0.474 | 0.368
13 | NCI-H2085 | 0.507 | 0.45 | 0.448 | 0.365 | 0.744 | 0.686 | 0.692 | 0.573 | 0.687 | 0.65 | 0.585 | 0.451 | 0.926 | 1.02 | 0.804 | 0.677 | 0.818 | 0.713 | 0.749 | 0.571
14 | NCI-H2087 | 0.23 | 0.176 | 0.21 | 0.158 | 0.918 | 0.825 | 0.868 | 0.6 | 0.425 | 0.398 | 0.286 | 0.155 | 0.656 | 0.694 | 0.663 | 0.624 | 0.391 | 0.553 | 0.516 | 0.378
15 | NCI-H2126 | 0.352 | 0.329 | 0.363 | 0.322 | 0.734 | 0.679 | 0.696 | 0.676 | 0.525 | 0.53 | 0.457 | 0.348 | 0.639 | 0.659 | 0.662 | 0.536 | 0.928 | 0.896 | 0.822 | 0.525
16 | NCI-H2170 | 0.397 | 0.423 | 0.372 | 0.312 | 0.26 | 0.332 | 0.265 | 0.254 | 0.394 | 0.416 | 0.319 | 0.28 | 0.262 | 0.253 | 0.252 | 0.259 | 0.624 | 0.585 | 0.49 | 0.389
17 | NCI-H2228 | 0.734 | 0.548 | 0.745 | 0.788 | 0.574 | 1.15 | 1.2 | 0.927 | 0.241 | 0.377 | 0.288 | 0.224 | 0.312 | 0.364 | 0.327 | 0.341 | 0.783 | 0.886 | 0.709 | 0.698
18 | NCI-H2347 | 0.456 | 0.342 | 0.416 | 0.397 | 0.979 | 0.664 | 0.971 | 0.781 | 0.409 | 0.332 | 0.425 | 0.27 | 0.523 | 0.405 | 0.43 | 0.41 | 0.525 | 0.595 | 0.553 | 0.498
19 | NCI-H2405 | 0.5 | 0.504 | 0.492 | 0.354 | 0.934 | 1.13 | 0.963 | 0.734 | 0.395 | 0.378 | 0.344 | 0.331 | 0.977 | 1.01 | 0.769 | 0.565 | 0.882 | 0.832 | 0.765 | 0.524
20 | NCI-H3122 | 0.169 | 0.218 | 0.195 | 0.187 | 1.01 | 0.978 | 0.999 | 0.89 | 0.374 | 0.344 | 0.286 | 0.164 | 0.199 | 0.191 | 0.188 | 0.189 | 0.631 | 0.6 | 0.581 | 0.48
21 | PC-3 [JPC-3] | 0.494 | 0.548 | 0.529 | 0.548 | 0.405 | 0.39 | 0.444 | 0.39 | 0.448 | 0.405 | 0.37 | 0.372 | 1.1 | 1.11 | 0.745 | 0.652 | 1.12 | 1.08 | 1.04 | 0.733
22 | PC-14 | 0.512 | 0.6 | 0.593 | 0.548 | 0.365 | 0.318 | 0.376 | 0.313 | 0.571 | 0.708 | 0.516 | 0.331 | 0.12 | 0.137 | 0.13 | 0.123 | 0.242 | 0.324 | 0.297 | 0.233
23 | RERF-LC-KJ | 0.992 | 1.05 | 0.957 | 0.846 | 0.916 | 0.884 | 0.824 | 0.714 | 0.38 | 0.429 | 0.406 | 0.308 | 0.466 | 0.491 | 0.469 | 0.435 | 0.904 | 0.891 | 0.856 | 0.516
24 | SK-LU-1 | 0.412 | 0.406 | 0.373 | 0.334 | 0.759 | 0.778 | 0.609 | 0.362 | 0.563 | 0.622 | 0.491 | 0.305 | 1.01 | 1.01 | 1.04 | 0.865 | 0.48 | 0.439 | 0.456 | 0.407
25 | SK-MES-1 | 0.305 | 0.301 | 0.312 | 0.263 | 0.493 | 0.448 | 0.422 | 0.412 | 0.71 | 0.614 | 0.553 | 0.385 | 0.934 | 0.906 | 0.913 | 0.849 | 0.729 | 0.756 | 0.6 | 0.497
26 | SW 1573 | 0.389 | 0.428 | 0.384 | 0.298 | 1 | 1.19 | 1.18 | 0.98 | 0.387 | 0.372 | 0.307 | 0.163 | 0.768 | 0.745 | 0.902 | 0.755 | 0.399 | 0.497 | 0.473 | 0.34
27 | UMC-11 | 0.346 | 0.361 | 0.311 | 0.325 | 0.858 | 0.994 | 0.885 | 0.765 | 0.289 | 0.378 | 0.28 | 0.211 | 0.653 | 0.799 | 0.788 | 0.763 | 0.288 | 0.335 | 0.367 | 0.343

Reference: the supplement of paper PMC10307832
